Reference: US8198317B2, “Methylenedioxy phenolic compounds and their use to treat disease” (The Ohio State University Research Foundation, priority 2008, dated 2012)

How the values were obtained:
Patient = assay: Treatment of a patient with acute ST elevation myocardial infarction (Examples 13-15); assay type: in vivo, human; conditions: 1.0 to 100 mg/kg intravenously
Method: A person presents with sudden chest pain typically radiating to the left arm or left side of the neck, shortness of breath, nausea and palpitation with vomiting and sweating. After being evaluated with an electrocardiogram (EKG, ECG), a chest X-ray and blood tests to detect elevations in cardiac markers (blood tests to detect heart muscle damage), they are diagnosed as suffering from acute ST elevation myocardial infarction. The patient is administered a composition comprising an effective amount of 3,4-methylenedioxy-6-nitrophenyl acetate (INV 75) (1.0 to 100 mg/kg) intravenously. The composition is optionally administered in conjunction with therapy such as thrombolytic drugs such as tissue plasminogen activator (tPA) or streptokinase and administration of aspirin, a drug to reduce the tendency of platelet aggregation, such as clopidogrel bisulfate, a statin, and/or heparin or a combination thereof, using dosages known to one of ordinary skill in the art. Patient reports improvement in the chest pain, shortness of breath and palpitations.
(§1) A person presents with sudden chest pain typically radiating to the left arm or left side of the neck, shortness of breath, nausea and palpitation with vomiting and sweating. After being evaluated with an electrocardiogram (EKG, ECG), a chest X-ray and blood tests to detect elevations in cardiac markers (blood tests to detect heart muscle damage), they are diagnosed as suffering from acute ST elevation myocardial infarction. The patient is administered a composition comprising an effective amount of 3,4-methylenedioxy-6-nitrophenyl acetate (INV 7465) (1.0 to 100 mg/kg) intravenously. […]
as §1, with “infarction.” for “infarction. The patient is administered a composition comprising an effective amount of 3,4-methylenedioxy-6-nitrophenyl acetate (INV 7465) (1.0 to 100 mg/kg) intravenously.”

Cardiovascular Patient = assay: Treatment of a cardiovascular patient with chest pain (Examples 8-10); assay type: in vivo, human; conditions: 1.0 to 100 mg/kg
Method: A person presents with uncomfortable pressure, squeezing and pain in the center of their chest as well as in shoulders, arms, neck, jaw and back. […] After being evaluated with an angiography, they are diagnosed as suffering from atherosclerosis with plaque formation in the coronary arteries. The patient is administered a composition comprising an effective amount of 3,4-methylenedioxy-6-nitrophenyl acetate (INV 75) (1.0 to 100-mg/kg). Alternate therapies include, 3,4-methylenedioxy phenyl acetate (INV 73); 3,4-methylenedioxy-6-nitrophenol (INV 74; 3,4-Methylenedioxy 6-nitro phenyl lipoate (INV-7465) or 3,4-Methylenedioxy phenyl lipoate (INV-7065). The composition is optionally administered in conjunction with therapy such as administration of aspirin, a drug to reduce the tendency of platelet aggregation, such as clopidogrel bisulfate, a statin, an angiotensin converting enzyme inhibitor, and/or heparin or a combination thereof, using dosages known to one of ordinary skill in the art. Patient reports improvement in the chest pain, shortness of breath. They are again evaluated with an angiography to measure reduced plaque in their arteries.
A person presents with uncomfortable pressure, squeezing and pain in the center of their chest for less than 30 minutes. They are taken to the cardiac angiography suite for suspected unstable angina. […] After being evaluated with an angiography, they are diagnosed as suffering from atherosclerosis with plaque formation in the coronary arteries. The patient is administered a composition comprising an effective amount of 3,4-Methylenedioxy phenyl lipoate (INV-7065) (1.0 to 100 mg/kg). […] They are again evaluated with an angiography to measure reduced plaque in their arteries.
A person presents with uncomfortable pressure, squeezing and pain in the center of their chest for less than 30 minutes. […] After being evaluated with an angiography, they are diagnosed as suffering from atherosclerosis with plaque formation in the coronary arteries. […] They are again evaluated with an angiography to measure reduced plaque in their arteries.

| Compound | chest pain, shortness of breath and palpitations (Patient) | chest pain, shortness of breath (Cardiovascular Patient) |
| --- | --- | --- |
| CC(=O)Oc1cc2c(cc1[N+](=O)[O-])OCO2 [INV-75, 3,4-methylenedioxy-6-nitrophenyl acetate] | improvement | improvement |
| O=C(CCCCC1CCSS1)Oc1ccc2c(c1)OCO2 (stereo not drawn) [INV-7065, 3,4-Methylenedioxy phenyl lipoate] | improvement | improvement |
| O=C(CCCCC1CCSS1)Oc1cc2c(cc1[N+](=O)[O-])OCO2 (stereo not drawn) [INV-7465, 3,4-Methylenedioxy 6-nitro phenyl lipoate] | improvement | improvement |
